Measured values reported in PMC11173628, “Imidazole Carbamates as a Promising Alternative for Treating Trichomoniasis: In Vitro Effects on the Growth and Gene Expression of Trichomonas vaginalis” (Molecules, 2024).
“Also recorded” adds a separate entry of the source.

What was measured:
[1] = In vitro cytotoxicity assay (XTT), HT29; conditions: human
Procedure: (§1) Concentration–response curves for the viability of (A) Caco-2 and (B) HT29 cells treated with increasing concentrations of AGR compounds. […] Cell viability was determined using trypan blue dye exclusion (0.4%) (1:1, v/v) in a Neubauer chamber, as well as an XTT proliferation assay. Values represent the mean ± standard deviation of three independent experiments.
(§2) The Caco-2 and HT29 cell lines were provided by Luz Maria Rocha Ramirez from Hospital Infantil de México Federico Gómez, Secretaría de Salud. Cells were cultured in DMEM medium supplemented with 10% fetal bovine serum, 1% L-glutamine, and 1% penicillin/streptomycin at 37 °C in a 5% CO2 atmosphere. […] After incubation, cell viability was assessed using the XTT assay. The results are expressed as a percentage of viable cells compared with untreated cells. The cytotoxic concentration 50 (CC50) was calculated using GraphPad Prism 7.0 software. […] The assay was performed at least three times in triplicate. The selectivity index (SI) was calculated as SI = cells CC50/trophozoites IC50.

[2] = test system: HT29 cells; test: In vitro cytotoxicity assay (XTT), HT29; conditions: CC50 HT29 / IC50 trophozoites
Procedure: as §1, §2

[3] = test system: CaCo-2 cells; test: In vitro cytotoxicity assay (XTT), Caco-2; conditions: CC50 CaCo-2 / IC50 trophozoites
Procedure: as §1, §2

[4] = In vitro cytotoxicity assay (XTT), Caco-2; conditions: human
Procedure: as §1, §2

[5] = test system: T. vaginalis trophozoites; test: Kinetic growth curve of T. vaginalis in presence of compounds; format: cell-based, Trichomonas vaginalis; conditions: compound at its IC50, monitored up to 96 h
Procedure: The trophozoites were incubated at the IC50 values for each compound. The viability and number of trophozoites were monitored at 6, 12, 18, 24, 48, 72, and 96 h with trypan blue (0.4%) (1:1, v/v) and XTT assays.
To understand the antiparasitic activities of the compounds against T. vaginalis cultures, we produced a curve of the kinetic growth of T. vaginalis as a function of time. […] Trophozoites were observed via light microscopy, and their growth and viability were evaluated at 6, 12, 24, 48, 72, and 96 h.

[6] = test system: T. vaginalis Donne ATCC 30236 trophozoites; test: Determination of IC50 values (anti-Trichomonas activity, trypan blue and XTT); format: cell-based, Trichomonas vaginalis; conditions: for IC50: Trichomonas vaginalis, ATCC30236, T. vaginalis Donne ATCC 30236, 24 h, 37 °C, 0–10 µM, trypan blue and XTT, read-out: IC50 (viability of T. vaginalis trophozoites); for Enhancement of trichomonacidal effect in relation to MTZ: ratio of IC50 values vs MTZ; for Enhancement of trichomonacidal effect in relation to NTZ: ratio of IC50 values vs NTZ
Procedure: Figure 2 Determination of the IC50 values of AGR compounds on the culture of Trichomonas vaginalis. […] The trophozoites were incubated in the presence of the compounds for 24 h at 37 °C with different concentrations of each compound. Values represent the mean ± standard deviation of three independent experiments.
The T. vaginalis Donne ATCC 30236 strain was acquired from the ATCC (American Type Culture Collection). It was cultured axenically in trypticase–yeast extract–maltose medium (TYM, at pH 6.0) supplemented with 10% sterile horse serum (previously inactivated at 56 °C for 30 min) and incubated at 37 °C [42]. The trophozoites were analyzed via motility, morphology, and trypan blue dye exclusion assays (0.4%) under an optical microscope with a magnification of 40×. The parasites were cultured for 24 h at 37 °C, corresponding to the logarithmic growth phase, and were used for anti-Trichomonas assays.
The anti-Trichomonas activity was evaluated in 1.5 mL tubes, where 2.6 × 10^5 trophozoites/mL was treated with increasing concentrations (0–10 µM) of the selected compounds. The tubes were incubated at 37 °C for 24 h. Then the trypan blue dye exclusion and XTT assay tests were used for evaluations of cell viability, as previously described. […] The IC50 values were calculated using GraphPad Prism 8.0 Inc. software, Version 8.0.2 (263) (San Diego, CA, USA).

[7] = test system: T. vaginalis trophozoites (metabolic gene transcripts); test: Relative gene expression of T. vaginalis in presence of compounds (RT-qPCR, 2^-ΔΔCt, PK reference gene); format: cell-based, Trichomonas vaginalis; conditions: 24 h at IC50 concentration; for Increase of PFK transcripts: vs untreated control
Procedure: The main carbon and energy source for T. vaginalis is the fermentative carbohydrate metabolism. We sought to determine whether the death of T. vaginalis is related to changes in its metabolic genes. A gene expression assay based on RT-qPCR was performed to evaluate the transcription levels of several genes in T. vaginalis trophozoites that were incubated for 24 h at the IC50 concentration for each compound.
To evaluate the expression levels of the genes involved in the metabolism of T. vaginalis in the absence and presence of trichomonacidal compounds, the genetic expression levels of 15 genes were analyzed by means of real-time RT-qPCR. To this end, genes encoding enzymes involved in essential metabolic pathways for cell survival, such as glycolysis, the pentose phosphate pathway, structural proteins, and redox maintenance, were identified using the GenBank database (https://www.ncbi.nlm.nih.gov/genbank/ accessed on 15 January 2023) (Table 3).
The total RNA from trophozoites in the absence and presence of the compound was extracted using TRIzol® Reagent (Invitrogen, Carlsbad, CA, USA) according to the manufacturer’s instructions. The quality of RNA was assessed at 260/280 nm, and the integrity was assessed by 2.0% (w/v) agarose gel electrophoresis. For synthesis of the cDNA, samples were treated with 1 U of DNAase I enzyme (Thermo Fisher Scientific, Waltham, MA, USA). cDNA was synthesized using the primers Oligo (dT) 18 (Thermo Fisher Scientific) and RevertAid reverse transcriptase (Thermo Fisher Scientific). All synthesized cDNAs were quantified and stored at −70 °C until use.
We evaluated the expression levels of genes involved in the metabolism of T. vaginalis trophozoites in the absence and presence of trichomonacidal compounds. The amplification of the specific PCR products and the specificity of the primers of the genes proposed in this study (Table 4) were determined using the Fast SYBR® Green Master Mix kit (Applied Biosystems, Foster City, CA, USA) in the StepOnePlusTM Real-Time PCR Systems platform (Life Technologies, Foster City, CA, USA), which was carried out according to the method previously reported by Gutiérrez-Cardona et al..
The relative changes in the expression levels of the target genes (PK, CK, PFK, ALDO, TPI, GAPDH, ENOL, G6PD, 6PGDH, TKT, TALDO, PFOR, NADH, ACT, and TUB) were analyzed by the 2^−ΔΔCt method, using the PK reference gene for normalization. The curve was fitted with GraphPad Prism 8 software (GraphPad Software Inc., La Jolla, CA, USA), and statistical analysis was performed. ANOVA and the Tukey–Kramer test were used to evaluate the relative change in expression after normalization. Three replicates were included for each treatment, and all reactions were performed in triplicate.

[8] = HT29 cells, HT29 CC50, 48 h, 0–500 µM, XTT
[9] = Caco-2, CaCo-2 CC50, 48 h, 0–500 µM, XTT

Row | IC50 [6] [µM] | Expression of NADH oxidase gene [7] | Compound | CC50 at 48 h [1, 8] [µM] | HT29 SI (CC50/IC50) [2] | CaCo-2 SI (CC50/IC50) [3] | CC50 at 48 h [4, 9] [µM] | Effect on kinetic growth curve of T. vaginalis [5] | Enhancement of trichomonacidal effect in relation to MTZ [6] | Enhancement of trichomonacidal effect in relation to NTZ [6] [fold] | Effect on ALDO expression [7] | Overexpression of PFOR [7] [fold] | Increase of PFK transcripts [7] [fold] | Effect on GAPDH expression [7] | Effect on PFK expression [7] | Decrease in the expression of PFOR [7] [fold] | CC50 at 48 h [1] [µM] | CC50 at 48 h ([4]; Caco-2) [µM]
1 | 0.96 | decreased | Cc1ncc([N+](=O)[O-])n1CCOC(=O)Nc1ccc(F)cc1 [AGR-4] | 593 | 617 | 531.2 | 510 | more significant delay in the logarithmic and stationary phases; also recorded: inhibited the growth of the parasite to a greater degree | – | – | reduced | – | – | reduced | negatively affected | 1.5 | – | –
2 | 3.1 | – | Cc1ncc([N+](=O)[O-])n1CCO [MTZ, metronidazole, reference compound] | – | – | – | – | – | – | – | – | – | – | – | – | – | – | –
3 | 6.62 | – | CC(=O)Oc1ccccc1C(=O)Nc1ncc([N+](=O)[O-])s1 [NTZ, nitazoxanide, reference compound] | – | 95.7 | 87.6 | – | – | – | – | – | – | – | – | – | – | – | –

Continued, molecule first:

Row | Compound | IC50 [6] [µM] | Expression of NADH oxidase gene [7] | CC50 at 48 h [1, 8] [µM] | HT29 SI (CC50/IC50) [2] | CaCo-2 SI (CC50/IC50) [3] | CC50 at 48 h [4, 9] [µM] | Effect on kinetic growth curve of T. vaginalis [5] | Enhancement of trichomonacidal effect in relation to MTZ [6] | Enhancement of trichomonacidal effect in relation to NTZ [6] [fold] | Effect on ALDO expression [7] | Overexpression of PFOR [7] [fold] | Increase of PFK transcripts [7] [fold] | Effect on GAPDH expression [7] | Effect on PFK expression [7] | Decrease in the expression of PFOR [7] [fold] | CC50 at 48 h [1] [µM] | CC50 at 48 h ([4]; Caco-2) [µM]
4 | Cc1ncc([N+](=O)[O-])n1CCOC(=O)NC1CCCCC1 [AGR-1] | 0.67 | decreased | 532 | 794 | 970.0 | 650 | more significant delay in the logarithmic and stationary phases | fivefold | 10 | increased | 11 | 1.2 | – | – | – | – | –
5 | Cc1ncc([N+](=O)[O-])n1CCOC(=O)Nc1ccccc1 [AGR-2] | 0.4 | decreased | 730 | >1000 | >1000 | 560 | more significant delay in the logarithmic and stationary phases | 8 fold | 16 | reduced | 7.5 | 1.5 | reduced | – | – | – | –
6 | Cc1ncc([N+](=O)[O-])n1CCOC(=O)Nc1ccc(Cl)cc1 [AGR-3] | 0.64 | – | 660 | >1000 | 817.1 | 523 | – | fivefold | 10 | reduced | 7.5 | – | reduced | negatively affected | – | – | –
7 | Cc1ncc([N+](=O)[O-])n1CCOC(=O)Nc1ccc([N+](=O)[O-])cc1 [AGR-5] | 1.45 | decreased | – | 386 | 400 | – | – | – | – | – | 2.5 | – | – | negatively affected | – | 560 | 580
